Measured values published in PubChem BioAssay (NCI).
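Tested at 5 concentrations; 48 h exposure; 96-well plates; endpoints linearly interpolated, else capped at highest concentration. Here, GI50 denotes the concentration required for 50% inhibition of growth. At the TGI there is no net growth.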

Columns and labels:
Test in all cases: growth of human tumour cells (NCI), 48 h
SF-268 CNS = test system: SF-268 CNS
MALME-3M melanoma = test system: MALME-3M melanoma
HCT-116 colon = test system: HCT-116 colon
SNB-19 CNS = test system: SNB-19 CNS
SF-539 CNS = test system: SF-539 CNS
786-0 renal = test system: 786-0 renal
EKVX NSCLC = test system: EKVX NSCLC
M14 melanoma = test system: M14 melanoma
OVCAR-5 ovarian = test system: OVCAR-5 ovarian
PC-3 prostate = test system: PC-3 prostate

Row | Compound | TGI (SF-268 CNS) [µM] | TGI (MALME-3M melanoma) [µM] | TGI (HCT-116 colon) [µM] | TGI (SNB-19 CNS) [µM] | TGI (SF-539 CNS) [µM] | TGI (786-0 renal) [µM] | TGI (EKVX NSCLC) [µM] | TGI (M14 melanoma) [µM] | TGI (OVCAR-5 ovarian) [µM] | TGI (PC-3 prostate) [µM] | GI50 (EKVX NSCLC) [µM] | GI50 (SF-268 CNS) [µM] | GI50 (HCT-116 colon) [µM] | GI50 (SNB-19 CNS) [µM] | GI50 (M14 melanoma) [µM] | GI50 (OVCAR-5 ovarian) [µM] | GI50 (SF-539 CNS) [µM] | GI50 (PC-3 prostate) [µM] | GI50 (MALME-3M melanoma) [µM]
1 | O=c1n(Cc2ccccc2)c(=O)n2c(=O)n(Cc3ccccc3)c(=O)n12 | > 100 | > 100 | > 100 | > 100 | > 100 | > 100 | – | – | – | – | – | – | – | – | – | – | – | – | –
2 | COc1cc2c(c(O)c1O)-c1ccc(OC)c(=O)cc1C(NC(C)=O)CC2 (configuration not stated) | > 100 | > 100 | > 62.8 | > 100 | 24 | > 82.8 | > 100 | > 100 | > 100 | – | – | – | – | – | – | – | – | – | –
3 | CCc1nc2cc3cccnc3c(Cl)c2[nH]c1=O | > 100 | > 100 | > 100 | > 100 | – | > 100 | > 100 | > 100 | > 100 | > 100 | – | – | – | – | – | – | – | – | –
4 | COc1ccc2c(c1)CCN=C2c1ccccc1CCCCl | > 100 | – | 61.3 | 40.1 | 45.6 | > 100 | > 100 | > 100 | > 100 | > 100 | – | – | – | – | – | – | – | – | –
5 | COc1ccc(-c2csc(NC(=O)CSc3nc(C)c(-c4ccccc4)n3Nc3ccccc3)n2)cc1 | > 100 | – | > 100 | > 100 | > 100 | – | > 100 | > 100 | > 100 | > 100 | 3.8 | 9.05 | 5.32 | > 100 | 8.66 | > 100 | > 100 | 5.16 | –
6 | O=C1CCc2ccc3c(c21)CC1(Cc2ccccc2C1)C3 | > 100 | 70.5 | 17.6 | > 100 | > 100 | 48.1 | – | > 100 | 44.2 | > 100 | – | – | – | – | – | – | – | – | –
7 | CCOC(=O)C1(C(=O)OCC)CCCN1C(=O)[C@H](CNC(=O)OC(C)(C)C)NC(=O)OCc1ccccc1 | > 100 | – | > 100 | > 100 | > 100 | > 100 | > 100 | > 100 | > 100 | > 100 | – | – | – | – | – | – | – | – | –
8 | C=C(C)[C@@]1(O[Si](C)(C)C)CCCC[C@@H]1CC(Sc1ccccc1)Sc1ccccc1 | 28.2 | 24.4 | – | 30.6 | 26.5 | 28.6 | 32.1 | 31.3 | 30.3 | 27.4 | – | – | – | – | – | – | – | – | –
9 | Cc1cn([C@H]2C[C@](C)(CO)N(C)O2)c(=O)[nH]c1=O | > 100 | > 100 | > 100 | > 100 | – | > 100 | > 100 | > 100 | > 100 | > 100 | – | – | – | – | – | – | – | – | –
10 | CCN1C(=O)N(CC)C2Nn3c(s/c(=C4\C(=O)N(C)c5ccccc54)c3=O)=NC21 (configuration not stated) | > 100 | > 100 | > 100 | – | – | – | > 100 | > 100 | – | > 100 | 2.25 | > 100 | 1.95 | – | 2.41 | – | – | 3.52 | 3.9
11 | CCCCC/C(C=O)=C\c1ccccc1 | > 100 | – | > 100 | > 100 | > 100 | > 100 | > 100 | > 100 | – | > 100 | – | – | – | – | – | – | – | – | –
12 | O=C(c1ccccc1)N1C(=S)N=C(Nc2ccccc2)C1=Nc1ccccc1 | > 100 | > 100 | > 100 | > 100 | > 100 | > 100 | > 100 | – | > 100 | > 100 | – | – | – | – | – | – | – | – | –
13 | COC(=O)[C@H](C)NC(=O)[C@H](CSC)N1C(=O)N[C@@H](C(C)C)C1=O | – | > 100 | > 100 | > 100 | > 100 | > 100 | > 100 | > 100 | > 100 | > 100 | – | – | – | – | – | – | – | – | –
14 | COc1ccc(N=NC(=Nc2ccc(F)cc2)c2ccc(N(CCC#N)CCC#N)cc2)cc1 | > 100 | – | > 100 | > 100 | > 100 | > 100 | > 100 | > 100 | > 100 | 58.9 | – | – | – | – | – | – | – | – | –
15 | NC(=O)c1ncn2c1NC(=O)CC2 | > 100 | > 100 | > 100 | > 100 | > 100 | – | > 100 | – | > 100 | – | – | – | – | – | – | – | – | – | –
16 | O=C(Nc1ccc(-n2cc(-c3ccncc3)c(-c3ccc(O)c(Cl)c3)n2)cc1)Nc1cccc(Cl)c1Cl | > 32.5 | > 32.5 | 21.6 | > 32.5 | 9.27 | – | > 32.5 | > 32.5 | > 32.5 | 14.3 | 9.99 | 18.6 | 3.26 | 15.8 | 3.16 | > 32.5 | 2.04 | 1.73 | 4.94
17 | O=C(O)CC(NC(=O)/C(=C/c1ccccc1O)NC(=O)c1ccccc1)C(=O)O (configuration not stated) | – | > 100 | > 100 | – | > 100 | > 100 | > 100 | > 100 | > 100 | > 100 | – | – | – | – | – | – | – | – | –
18 | COc1ccccc1N1CCN(CCCNC(=O)c2cc(Cl)c(N)c(Cl)c2)CC1 | > 100 | 37.7 | > 100 | > 100 | > 100 | > 100 | > 100 | 53.1 | > 100 | – | – | – | – | – | – | – | – | – | –
19 | C[C@]12CC[C@H](O)C=C1CC[C@@H]1[C@@H]2CC[C@]2(C)C(c3ccc(=O)oc3)CC[C@]12O (some centres not stated) | 0.0269 | 0.014 | 0.0674 | 0.237 | 0.0152 | – | 0.145 | – | 0.321 | – | – | – | – | – | – | – | – | – | –
20 | Cc1c2ccncc2c(C)c2c1[nH]c1ccccc12 | 3.38 | 4.92 | 1.68 | 2.09 | 2.11 | – | 3 | 2.33 | 4.23 | 8.55 | – | – | – | – | 0.979 | – | – | 1.2 | –
21 | O=C([CH-]C(=O)c1ccccc1)c1ccccc1.O=C([CH-]C(=O)c1ccccc1)c1ccccc1.[O]=[U+2]=[O] | – | – | 15.9 | 18.9 | 6.44 | – | > 100 | 6.42 | – | – | 4.78 | – | 2.99 | 3.36 | 2.35 | – | 2.45 | – | –
